Entries after “also recorded” stand apart in the source; their conditions may differ.
Key:
Type in all cases: in vivo, rat
plasma miRNAs = experiment: Real-time PCR of plasma miRNAs, 6% NaCl diet (Example 3)
Experimental: (§1) One week following the initiation of the 6.0% NaCl diet, rats were dosed subcutaneously (sc) with saline or oligonucleotides (M−10101, 5′-CTTTTTGCTCGTCTTA-3′ (SEQ ID NO: 12) or M-10591, 5′-TCCTAGAAAGAGTAGA-3′ (SEQ ID NO:13)) at 25 mg/kg every 2 weeks. Captopril or water were dosed daily by oral gavage. Echocardiography was performed every 2 weeks starting one week post […] dosing. The Captopril dose for rat was selected to match the standard human dose in man.
Quantitative real-time PCR analysis from plasma. RNA from plasma samples was isolated using Trizol LS Reagent (Invitrogen), using the manufacturer's protocol. Prior to RNA isolation, […] of two different synthetic C. elegans miRNA sequences were added to serve as internal controls for normalization of target miRNAs. The C. elegans sequences used were cel-miR-2 ([…], SEQ ID NO:5), and cel-lin-4 ([…]; SEQ ID NO:6) (Dharmacon). The final RNA pellet was re-suspended in a final volume equal to the initial plasma volume and 5 μl was used for subsequent RT-PCR reactions, as described above.

[1] = system: miR-208a, miR-499, miR-208b, Myh6, Myh7b, Myh7, Dynlt1, Vcpip, Tegt; experiment: Cardiac tissue real-time PCR, 6% NaCl diet (Example 3)
Experimental: as §1
(§2) For in vivo real-time PCR analysis, RNA was extracted from cardiac tissue using Trizol (Invitrogen) after which two μg RNA from each tissue sample was used to generate cDNA using Super Script II reverse transcriptase per manufacturer's specifications (Invitrogen). To detect the level of miR-208 RT-PCR was performed using the Taqman MicroRNA assay (Applied Biosystems, ABI) according the manufacturer's recommendations, using 10-100 ng of total RNA. The expression of a subset of genes was analyzed by quantitative real time PCR using Taqman probes purchased from AB.

miR-208a = experiment: Real-time PCR of miR-208a in cardiac tissue, 4% NaCl diet (Example 1); conditions: 4% NaCl HS diet, 2 weeks after last injection, 5 or 25 mg/kg antimiR, control 25 mg/kg
Experimental: This regulation of miR-499 and miR-208b was confirmed by Northern blot analysis (FIG. 2B).
as §2, with “ABI.” for “AB.”

[2] = M-10101 25 mg/kg sc, Captopril po daily

In the case of “M-10101: antimiR targeting bases 2 to 17 of mature miR-208a, LNA and DNA linked by phosphorothioate bonds; 5′-CTTTTTGCTCGTCTTA-3′ (SEQ ID NO: 12) (all phosphorothioate, sugars by position and methylation of C not given here; LNA/DNA mixmer; listed as Homo sapiens)”, the “Plasma miR-19b” value (plasma miRNAs) is reported as “significantly increased”, the “Plasma miR-223” value (plasma miRNAs) is reported as “more significant decrease” and the “Plasma miR-423-5p, miR-106b, miR-16, miR-92a, miR-378, miR-210, miR-378*, miR-20b and miR-93” value (plasma miRNAs) is reported as “decreased”. The “Expression of direct target genes of miR-208a (Dynlt1, Vcpip, Tegt) in cardiac tissue” value ([1]; 25 mg/kg sc) was “increase in expression”, the miR-208a cardiac level ([1]; 25 mg/kg sc every 2 weeks) was “further reduced” and the miR-208b cardiac level ([1]; 25 mg/kg sc every 2 weeks) was “reduction of cardiac levels”. For the same substance, the miR-499 cardiac level ([1]; 25 mg/kg sc every 2 weeks) was “reduction of cardiac levels”, the “Myh7b levels in the heart” value [1, 2] was “specifically reduced” and the “αMHC (Myh6) in the heart (reduced by HS diet)” value [1, 2] was “normalized”. The “βMHC (Myh7) expression (increase induced by HS diet)” value ([1]; M-10101 25 mg/kg sc, Captopril po daily, listed as antimiR-208a) was “more effective; also recorded: not significantly different from animals on the LS diet”, the “miR-208a level in left and right ventricle” value (miR-208a; listed as Anti-miR-208a) was “dose-dependent inhibition” and the “miR-208a level in left and right ventricle” value (miR-208a; listed as anti-miR-208a) was “dose-dependent reduction of miR-208a”.
